Data reported in patent EP4806898A1, “HETEROARYL DERIVATIVE COMPOUND AND USE THEREOF” (Voronoi Inc., priority 2023, dated 2025).

Key:
[1] = test system: UWB1.289 cells; assay: Cell proliferation inhibitory activity in BRCA1/2-mutant or HRD-positive cells (Cell Titer-Glo); type: cell-based; conditions: UWB1289; UWB1.289 cells, 144 hours after compound treatment, Cell Titer-Glo, 1.5 nM to 10 µM; read-out: GI50 UWB1.289 BRCA1 mut
Outline: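 UWB1.289 cells (1,000/well) in 50% MEBM/50% RPMI1640 exposed to […], final 1.5 nM to 10 µM, for 144 h at 37 °C. Viable cells measured by CellTiter-Glo luminescence; GI50 calculated.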

[2] = target: T1, recombinant USP1 protein (Homo sapiens, UniProt O94782, DEL125-138/DEL229-408/DEL608-737); assay: Binding affinity to recombinant USP1 protein by differential scanning fluorimetry; conditions: compound 100 µM; 0.03 mg/mL USP1 (Δ1-66, Δ125-138, Δ229-408, Δ608-737); Tm with compound minus Tm with DMSO; read-out: ΔTm (°C)
T1 sequence (O94782 with tags, fused parts or gaps DEL125-138/DEL229-408/DEL608-737): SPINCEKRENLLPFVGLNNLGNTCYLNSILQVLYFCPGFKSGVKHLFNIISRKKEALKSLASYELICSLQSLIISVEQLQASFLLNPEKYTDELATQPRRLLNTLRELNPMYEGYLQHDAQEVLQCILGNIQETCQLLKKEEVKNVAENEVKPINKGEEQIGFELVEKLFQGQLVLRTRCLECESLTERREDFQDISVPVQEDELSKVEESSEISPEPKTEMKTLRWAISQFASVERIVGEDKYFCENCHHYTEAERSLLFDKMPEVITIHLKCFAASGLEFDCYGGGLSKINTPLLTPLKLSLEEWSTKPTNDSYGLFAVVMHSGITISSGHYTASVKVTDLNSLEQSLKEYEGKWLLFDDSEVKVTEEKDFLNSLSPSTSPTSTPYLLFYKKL
Outline: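 USP1 (Δ1-66, Δ125-138, Δ229-408, Δ608-737) at 0.03 mg/mL with dye in 50 mM Tris-HCl pH 8.0, 150 mM NaCl, 2% glycerol, 1 mM DTT; compounds at 100 µM final. Tm read on real-time PCR instrument; ΔTm = Tm with compound minus Tm with DMSO.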

CN[C@H]1CCN(C(=O)c2cc3cnc(-c4c(OC)ncnc4C4CC4)nc3n2Cc2ccc(-c3nc(C(F)(F)F)cn3C(C)C)cc2)C1 [Example 97, (S)-(2-(4-cyclopropyl-6-methoxypyrimidin-5-yl)-7-(4-(1-isopropyl-4-(trifluoromethyl)-1H-imidazol-2-yl)benzyl)-7H-pyrrolo[2,3-d]pyrimidin-6-yl) (3-(methylamino)pyrrolidin-1-yl)methanone]
GI50 [1]: 100 to 500 nM
ΔTm at 100 µM [2]: > 5 °C

COc1ncnc(C2CC2)c1-c1ncc2cc(C(=O)N3CC(N)C3)n(Cc3ccc(-c4nc(C(F)(F)F)cn4C(C)C)cc3)c2n1 [Example 99, (3-aminoazetidin-1-yl)(2-(4-cyclopropyl-6-methoxypyrimidin-5-yl)-7-(4-(1-isopropyl-4-(trifluoromethyl)-1H-imidazol-2-yl)benzyl)-7H-pyrrolo[2,3-d]pyrimidin-6-yl)methanone]
GI50 [1]: < 100 nM
ΔTm at 100 µM [2]: > 5 °C

COc1ncnc(C2CC2)c1-c1ncc2cc(C(=O)NCCN)n(Cc3ccc(-c4nc(C(F)(F)F)cn4C(C)C)cc3)c2n1 [Example 100, N-(2-aminoethyl)-2-(4-cyclopropyl-6-methoxypyrimidin-5-yl)-7-(4-(1-isopropyl-4-(trifluoromethyl)-1H-imidazol-2-yl)benzyl)-7H-pyrrolo[2,3-d]pyrimidine-6-carboxamide]
GI50 [1]: 100 to 500 nM
ΔTm at 100 µM [2]: > 5 °C

COc1ncnc(C2CC2)c1-c1ncc2cc(C(=O)N3CC(F)C3)n(Cc3ccc(-c4nc(C(F)(F)F)cn4C(C)C)cc3)c2n1 [Example 101, (2-(4-cyclopropyl-6-methoxypyrimid in-5-yl)-7-(4-(1-isopropyl-4-(trifluoromethyl)-1H-imidazol-2-yl)benzyl)-7H-pyrrolo[2,3-d]pyrimidin-6-yl) (3-fluoroazetidin-1-yl)methanone]
GI50 [1]: 100 to 500 nM
ΔTm at 100 µM [2]: > 5 °C

COc1ncnc(C2CC2)c1-c1ncc2cc(C(=O)NCCN3CCN(C)CC3)n(Cc3ccc(-c4nc(C(F)(F)F)cn4C(C)C)cc3)c2n1 [Example 102, 2-(4-cyclopropyl-6-methoxypyrimidin-5-yl)-7-(4-(1-isopropyl-4-(trifluoromethyl)-1H-imidazol-2-yl)benzyl)-N-(2-(4-methylpiperazin-1-yl)ethyl)-7H-pyrrolo[2,3-d]pyrimidine-6-carboxamide]
GI50 [1]: < 100 nM
ΔTm at 100 µM [2]: > 5 °C

COc1ncnc(C2CC2)c1-c1ncc2cc(C(=O)NC3(C)COC3)n(Cc3ccc(-c4nc(C(F)(F)F)cn4C(C)C)cc3)c2n1 [Example 104, 2-(4-cyclopropyl-6-methoxypyrimidin-5-yl)-7-(4-(1-isopropyl-4-(trifluoromethyl)-1H-imidazol-2-yl)benzyl)-N-(3-methyloxetan-3-yl)-7H-pyrrolo[2,3-d]pyrimidine-6-carboxamide]
GI50 [1]: < 100 nM
ΔTm at 100 µM [2]: > 5 °C

COc1ncnc(C2CC2)c1-c1ncc2cc(C(=O)N3CC[C@@H](O)C3)n(Cc3ccc(-c4nc(C(F)(F)F)cn4C(C)C)cc3)c2n1 [Example 105, (R) - (2-(4-cyclopropyl-6-methoxypyrimid in-5-yl)-7-(4-(1-isopropyl-4-(trifluoromethyl)-1H-imidazol-2-yl)benzyl)-7H-pyrrolo[2,3-d]pyrimidin-6-yl) (3-hydroxypyrrolidin-1-yl)methanone]
GI50 [1]: 100 to 500 nM
ΔTm at 100 µM [2]: > 5 °C

COCCNC(=O)c1cc2cnc(-c3c(OC)ncnc3C3CC3)nc2n1Cc1ccc(-c2nc(C(F)(F)F)cn2C(C)C)cc1 [Example 106, 2-(4-cyclopropyl-6-methoxypyrimidin-5-yl)-7-(4-(1-isopropyl-4-(trifluoromethyl)-1H-imidazol-2-yl)benzyl)-N-(2-methoxyethyl)-7H-pyrrolo[2,3-d]pyrimidine-6-carboxamide]
GI50 [1]: < 100 nM
ΔTm at 100 µM [2]: > 5 °C

COc1ncnc(C2CC2)c1-c1ncc2cc(C(=O)NC[C@@H]3CCCN3C)n(Cc3ccc(-c4nc(C(F)(F)F)cn4C(C)C)cc3)c2n1 [Example 108, (S)-2-(4-cyclopropyl-6-methoxypyrimidin-5-yl)-7-(4-(1-isopropyl-4-(trifluoromethyl)-1H-imidazol-2-yl)benzyl)-N-((1-methylpyrrolidin-2-yl)methyl)-7H-pyrrolo[2,3-d]pyrimidine-6-carboxamide]
GI50 [1]: < 100 nM
ΔTm at 100 µM [2]: > 5 °C

CN[C@@H]1CCN(C(=O)c2cc3cnc(-c4c(OC)ncnc4C4CC4)nc3n2Cc2ccc(-c3nc(C(F)(F)F)cn3C(C)C)cc2)C1 [Example 109, (R) - (2-(4-cyclopropyl-6-methoxypyrimid in-5-yl)-7-(4-(1-isopropyl-4-(trifluoromethyl)-1H-imidazol-2-yl)benzyl)-7H-pyrrolo[2,3-d]pyrimidin-6-yl) (3-(methylamino)pyrrolidin-1-yl)methanone]
GI50 [1]: < 100 nM
ΔTm at 100 µM [2]: > 5 °C

COc1ncnc(C2CC2)c1-c1ncc2cc(C(=O)NC3CN(C)C3)n(Cc3ccc(-c4nc(C(F)(F)F)cn4C(C)C)cc3)c2n1 [Example 110, 2-(4-cyclopropyl-6-methoxypyrimidin-5-yl)-7-(4-(1-isopropyl-4-(trifluoromethyl)-1H-imidazol-2-yl)benzyl)-N-(1-methylazetidin-3-yl)-7H-pyrrolo[2,3-d]pyrimidine-6-carboxamide]
GI50 [1]: 100 to 500 nM
ΔTm at 100 µM [2]: > 5 °C

COc1ncnc(C2CC2)c1-c1ncc2cc(C(=O)N(C)C3COC3)n(Cc3ccc(-c4nc(C(F)(F)F)cn4C(C)C)cc3)c2n1 [Example 111, 2-(4-cyclopropyl-6-methoxypyrimidin-5-yl)-7-(4-(1-isopropyl-4-(trifluoromethyl)-1H-imidazol-2-yl)benzyl)-N-methyl-N-(oxetan-3-yl)-7H-pyrrolo[2,3-d]pyrimidine-6-carboxamide]
GI50 [1]: 100 to 500 nM
ΔTm at 100 µM [2]: > 5 °C

COc1ncnc(C2CC2)c1-c1ncc2cc(C(=O)N3C[C@H](O)[C@H]3C)n(Cc3ccc(-c4nc(C(F)(F)F)cn4C(C)C)cc3)c2n1 [Example 112, (2-(4-cyclopropyl-6-methoxypyrimid in-5-yl)-7-(4-(1-isopropyl-4-(trifluoromethyl)-1H-imidazol-2-yl)benzyl)-7H-pyrrolo[2,3-d]pyrimidin-6-yl)((2R,3S)-3-hydroxy-2-methylazetidin-1-yl)methanone]
GI50 [1]: < 100 nM
ΔTm at 100 µM [2]: > 5 °C

COc1ncnc(C2CC2)c1-c1ncc2cc(C(=O)N[C@@H](C)CO)n(Cc3ccc(-c4nc(C(F)(F)F)cn4C(C)C)cc3)c2n1 [Example 113, (S)-2-(4-cyclopropyl-6-methoxypyrimidin-5-yl)-N-(1-hydroxypropan-2-yl)-7-(4-(1-isopropyl-4-(trifluoromethyl)-1H-imidazol-2-yl)benzyl)-7H-pyrrolo[2,3-d]pyrimidine-6-carboxamide]
GI50 [1]: < 100 nM
ΔTm at 100 µM [2]: > 5 °C

COc1ncnc(C2CC2)c1-c1ncc2cc(C(=O)NCC(C)C)n(Cc3ccc(-c4nc(C(F)(F)F)cn4C(C)C)cc3)c2n1 [Example 114, 2-(4-cyclopropyl-6-methoxypyrimidin-5-yl)-N-isobutyl-7-(4-(1-isopropyl-4-(trifluoromethyl)-1H-imidazol-2-yl)benzyl)-7H-pyrrolo[2,3-d]pyrimidine-6-carboxamide]
GI50 [1]: < 100 nM
ΔTm at 100 µM [2]: > 5 °C

COc1ncnc(C2CC2)c1-c1ncc2cc(C(=O)N[C@@H]3CCC[C@H]3N(C)C)n(Cc3ccc(-c4nc(C(F)(F)F)cn4C(C)C)cc3)c2n1 [Example 115, 2-(4-cyclopropyl-6-methoxypyrimidin-5-yl)-N-((1R,2R)-2-(dimethylamino)cyclopentyl)-7-(4-(1-isopropyl-4-(trifluoromethyl)-1H-imidazol-2-yl)benzyl)-7H-pyrrolo[2,3-d]pyrimidine-6-carboxamide]
GI50 [1]: < 100 nM
ΔTm at 100 µM [2]: > 5 °C

COc1ncnc(C2CC2)c1-c1ncc2cc(C(=O)NC3(C)CC(F)(F)C3)n(Cc3ccc(-c4nc(C(F)(F)F)cn4C(C)C)cc3)c2n1 [Example 116, 2-(4-cyclopropyl-6-methoxypyrimidin-5-yl)-N-(3,3-difluoro-1-methylcyclobutyl)-7-(4-(1-isopropyl-4-(trifluoromethyl)-1H-imidazol-2-yl)benzyl)-7H-pyrrolo[2,3-d]pyrimidine-6-carboxamide]
GI50 [1]: < 100 nM
ΔTm at 100 µM [2]: > 5 °C

COc1ncnc(C2CC2)c1-c1ncc2cc(C(=O)N3CC[C@H](O)C3)n(Cc3ccc(-c4nc(C(F)(F)F)cn4C(C)C)cc3)c2n1 [Example 117, (S)-(2-(4-cyclopropyl-6-methoxypyrimidin-5-yl)-7-(4-(1-isopropyl-4-(trifluoromethyl)-1H-imidazol-2-yl)benzyl)-7H-pyrrolo[2,3-d]pyrimidin-6-yl) (3-hydroxypyrrolidin-1-yl)methanone]
GI50 [1]: < 100 nM
ΔTm at 100 µM [2]: > 5 °C
